Results taken from article PMC6562844, “A Basic Study of Photodynamic Therapy with Glucose-Conjugated Chlorin e6 Using Mammary Carcinoma Xenografts” (Cancers, 2019).

Tests used:
SNP cells [1] = assay: Analysis of cell death (Hoechst 33342, Annexin V-FITC / EthD-III staining); format: cell-based, canine; settings: for Annexin V-FITC / EthD-III staining 4 h after PDT: 8 μg/mL
Method: We seeded 5 × 10^4 SNP cells in 35-mm Petri dishes containing 2 mL of cultivation medium. After 24 h of incubation, the dishes were divided into the following […] groups: 1) control group (no treatment); 2) 0 J/cm^2 PDT group (treated with 8 μg/mL G-Ce6 and irradiated with light dose of 0 J/cm^2); 3) 1 J/cm^2 PDT group (treated with 8 μg/mL G-Ce6 and irradiated with light dose of 1 J/cm^2); 4) 5 J/cm^2 PDT group (treated with 8 μg/mL G-Ce6 and irradiated with light dose of 5 J/cm^2); and 5) 15 J/cm^2 PDT group (treated with 8 μg/mL G-Ce6 and irradiated with light dose of 15 J/cm^2).
The cells were incubated with 8 μg/mL G-Ce6 for 24 h. After washing with fresh media, the cells were irradiated with 650-nm laser light (10 mW/cm^2; 1, 5, and 15 J/cm^2) emitted by a semiconductor laser using an optical fiber with a microlens delivery attachment. After 4 h of PDT, the cells were stained using the Promokine Apoptotic/Necrotic/Healthy cell detection kit (PromoKine, Heidelberg, Germany), according to the manufacturer’s instructions. […] Nuclear morphology was examined using an Olympus BX51 (Olympus Co., Tokyo, Japan). […] Nuclear morphology was examined using an Olympus Fluoview FV1000 (Olympus Co., Tokyo, Japan). The cells were analyzed using fluorescence microscopy using FITC and Texas Red filter setting.

SNP cells [2] = assay: Kinetics experiment to assess apoptosis (IncuCyte Annexin V live-cell analysis); format: cell-based, canine; settings: 5 J/cm^2
Method: SNP cells were seeded at a density of (1–2) × 10^4 cells/well in 96-well plates and incubated for 24 h. The cells were then incubated with various concentrations of G-Ce6 (0, 0.064, 0.32, 1.6, or 8.0 μg/mL) for 24 h at 37 °C. After washing with fresh media, the cells were irradiated with 650-nm laser light (10 mW/cm^2, 5 J/cm^2) emitted by a semiconductor laser, using an optical fiber with a microlens delivery attachment. The cells were then stained with IncuCyte® Annexin V (Essen BioScience Inc., Ann Arbor, MI, USA) immediately following PDT, and incubated in a 5% CO2 atmosphere at 37 °C for 24 h. Images were automatically captured every 1 h for 24 h in phase-contrast and fluorescence modes using the IncuCyte® S3 system; phase contrast and green-phase images were obtained from the system. The total green object integrated intensity (green calibrated unit (GCU) × μm²/image) in an image was determined by object counting with IncuCyte® S3 Software according to the manufacturer’s protocol. In the present study, object counting is defined as the total sum of the intensity of Annexin V Green fluorescence in the image.

SNP cells [3] = assay: Analysis of apoptosis (Muse Annexin V and Dead Cell Assay kit); format: cell-based, canine; settings: 8 μg/mL; 1, 5, or 15 J/cm^2; 4 h after PDT; p < 0.01
Method: SNP cells were seeded at a density of 5 × 10^4 cells/well in 35-mm petri dishes containing 2 mL culture medium. Following 24 h of incubation, the cells were divided into the following groups: control (no treatment); laser (irradiated with a light dose of 15 J/cm^2); G-Ce6 (treated with 8 μg/mL G-Ce6); and PDT (treated with 8 μg/mL G-Ce6, and then irradiated with a light dose of 1, 5, or 15 J/cm^2).
The cells were incubated with 8 μg/mL G-Ce6 for 24 h. After washing with fresh media, the cells were irradiated with 650-nm laser light (10 mW/cm^2; 1, 5, and 15 J/cm^2) emitted by a semiconductor laser, using an optical fiber with a microlens delivery attachment. Apoptosis was assessed 4 h after laser irradiation using the Muse Annexin V and Dead Cell Assay kit (EMD Millipore Co., Billerica, MA, USA), according to the manufacturer’s protocols. Annexin V was used to detect phosphatidylserine on the external membrane of apoptotic cells.
Single-cell suspensions were then loaded onto the Muse Cell Analyzer (EMD Millipore Co.).

SNP tumors = assay: Tumor response to PDT in SNP tumor-bearing mice; format: in vivo, NOD/ShiJic-scidJcl mice; settings: 10 mg/kg i.v.; for Tumor regrowth delay vs control group: 677-nm, 100 J/cm^2, p < 0.05
Method: Six-week-old female NOD/ShiJic-scidJcl mice (CLEA Japan, Tokyo, Japan) were maintained in isolators under specific pathogen-free conditions. All SCID mice were housed and handled under clean conditions using a Jic rack (Jic Co., Kanagawa, Japan), sterilized water, cages, beddings, and food (CL-2; CLEA Japan, Tokyo, Japan). Food and water were given ad libitum. SNP cells were inoculated subcutaneously in the shaved lower dorsum of mice at a density of 1 × 10^6 cells in 0.1 mL phosphate buffered salts (Nacalai Tesque Inc., Kyoto, Japan) per mouse using a 26-gauge syringe. The treatments were initiated when the average tumor volume reached about 100 mm^3 in tumor model. The use of animals and the procedures employed in this study were approved by the Animal Research Committee of Tottori University (project number: 15-T-48).
We examined the following two experimental groups: (i) a 3-h-interval PDT group (G-Ce6 administered 3 h before laser irradiation) and (ii) a 5-min-interval PDT group (G-Ce6 administered 5 min before laser irradiation). Tumor-bearing mice were intravenously administered approximately 0.1 mL of G-Ce6 stock solution to achieve a dose of 10 mg/kg body weight; they were irradiated with 677-nm laser light emitted by a diode laser (Osada Electric Co., Ltd., Tokyo, Japan). Light was delivered to the mice through a quartz fiber fitted with a microlens and expanded onto the tumor at a 2–4 mm skin margin. The tumors were exposed at a fluence rate of 250 mW/cm^2, at a light dose of 100 J/cm^2.
The resulting treatment effect was assayed by changes in tumor volume. The tumor size was regularly measured after PDT using a caliper. Tumor volume was calculated using the following formula: tumor volume (V) = (a × b × c) × π/6, where a, b, and c are three orthogonal diameters of the tumor. The experiment was terminated on day 25. All mice were sacrificed via cervical dislocation, and the tumors were harvested.

[4] = tested on: murine colon cancer cells; design: method as in PMID 29408755; settings: light dose of 16 J/cm^2; read-out: IC50 against murine colon cancer cells; cited from earlier work

CCC1=C(C)c2cc3[nH]c(cc4nc(c(CC(=O)OC)c5[nH]c(cc1n2)c(C)c5C(=O)OC)[C@@H](CCC(=O)OC)[C@@H]4C)c(C)c3C(C)OCCCS[C@@H]1O[C@H](CO)[C@@H](O)[C@H](O)[C@H]1O (stereo partly drawn) [G-Ce6, Methyl (7S,8S)-18-ethyl-5-(2-methoxy-2-oxoethyl)-7-(3-methoxy-3-oxopropyl)-2,8,12,17-tetramethyl-13-(1-(3-(((2S,3R,4S,5S,6R)-3,4,5-trihydroxy-6-(hydroxymethyl)tetrahydro-2H-pyran-2-yl)thio)propoxy)ethyl)-7H,8H-porphyrin-3-carboxylate]
Morphological changes 4 h after PDT (SNP cells [1]; 0 J/cm^2 PDT group, Hoechst 33342): Signs of cell death were not visible
Annexin V-FITC / EthD-III staining 4 h after PDT (SNP cells [1]; 0 and 1 J/cm^2 PDT groups): a few cells were positively stained with EthD-III
Annexin V-FITC / EthD-III staining 4 h after PDT (SNP cells [1]; 5 and 15 J/cm^2 PDT groups): many cells were positively stained with Annexin V or EthD-III
Morphological changes 4 h after PDT (SNP cells [1]; 1 J/cm^2 PDT group): membrane blebbing
Morphological changes 4 h after PDT (SNP cells [1]; 5 J/cm^2 PDT group): shrinkage
Hoechst 33342 nuclear staining 4 h after PDT (SNP cells [1]; 5 and 15 J/cm^2 PDT groups): nuclear condensation
Morphological changes 4 h after PDT (SNP cells [1]; 15 J/cm^2 PDT group): cell membranes were not observed and a decrease in the number of SNP cells was evident
Time after PDT at which GCU began to increase (SNP cells [2]; 0.32 μg/mL): 1 to 3 h
Time after PDT at which GCU reached a maximum (SNP cells [2]; 0.32 μg/mL): 10 h
Time after PDT at which apoptosis (GCU) reached a plateau (SNP cells [2]; 8 μg/mL): approximately 4 h
Total green object integrated intensity (GCU × μm²/image) after PDT (SNP cells [2]; <0.064 μg/mL): did not increase
Apoptotic rates compared with control group (SNP cells [3]): significantly higher
Mean tumor weight on day 25 (SNP tumors; 3-h-interval PDT): 210.3 ± 85.0 mg
Tumor regrowth delay vs control group (SNP tumors; 3-h-interval PDT): significant tumor regrowth delay
Mean tumor weight on day 25 (SNP tumors; 5-min-interval PDT): 34.0 ± 12.7 mg
Tumor regrowth delay vs control group (SNP tumors; 5-min-interval PDT): significant tumor regrowth delay
IC50 [4]: 1.35 nM
